# Paper PMC3914206
# Columns and labels:
# panel of 442 kinases [1] = target: T1, panel of 442 kinases (Homo sapiens, UniProt O14730); type: binding; details: Compound Concentration 10 µM
# T1 construct: purchased KINOMEscan
# T1 sequence (O14730 1-519): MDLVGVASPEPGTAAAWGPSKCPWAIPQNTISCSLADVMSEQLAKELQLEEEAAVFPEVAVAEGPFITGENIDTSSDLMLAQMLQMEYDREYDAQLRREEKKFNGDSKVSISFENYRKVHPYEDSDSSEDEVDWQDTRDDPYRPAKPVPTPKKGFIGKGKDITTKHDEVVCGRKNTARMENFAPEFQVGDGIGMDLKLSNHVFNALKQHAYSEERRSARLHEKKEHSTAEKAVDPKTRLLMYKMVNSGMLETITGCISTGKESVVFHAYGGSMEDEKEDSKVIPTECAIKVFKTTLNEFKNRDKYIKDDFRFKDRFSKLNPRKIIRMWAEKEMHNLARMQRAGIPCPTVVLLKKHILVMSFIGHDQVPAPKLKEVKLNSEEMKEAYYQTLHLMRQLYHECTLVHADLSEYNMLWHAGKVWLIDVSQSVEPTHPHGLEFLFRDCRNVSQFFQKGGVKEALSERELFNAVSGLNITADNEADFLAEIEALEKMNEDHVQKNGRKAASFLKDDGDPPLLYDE
# From the text: (§1) We assessed the selectivity of members of this scaffold using the KINOMEscan methodology across a near comprehensive panel of 442 kinases [[18,27]].
# panel of 442 kinases [2] = target: T2, panel of 442 kinases (Homo sapiens, UniProt P09619); type: binding; details: Compound Concentration 10 µM
# T2 construct: purchased KINOMEscan
# T2 sequence (P09619 33-1106): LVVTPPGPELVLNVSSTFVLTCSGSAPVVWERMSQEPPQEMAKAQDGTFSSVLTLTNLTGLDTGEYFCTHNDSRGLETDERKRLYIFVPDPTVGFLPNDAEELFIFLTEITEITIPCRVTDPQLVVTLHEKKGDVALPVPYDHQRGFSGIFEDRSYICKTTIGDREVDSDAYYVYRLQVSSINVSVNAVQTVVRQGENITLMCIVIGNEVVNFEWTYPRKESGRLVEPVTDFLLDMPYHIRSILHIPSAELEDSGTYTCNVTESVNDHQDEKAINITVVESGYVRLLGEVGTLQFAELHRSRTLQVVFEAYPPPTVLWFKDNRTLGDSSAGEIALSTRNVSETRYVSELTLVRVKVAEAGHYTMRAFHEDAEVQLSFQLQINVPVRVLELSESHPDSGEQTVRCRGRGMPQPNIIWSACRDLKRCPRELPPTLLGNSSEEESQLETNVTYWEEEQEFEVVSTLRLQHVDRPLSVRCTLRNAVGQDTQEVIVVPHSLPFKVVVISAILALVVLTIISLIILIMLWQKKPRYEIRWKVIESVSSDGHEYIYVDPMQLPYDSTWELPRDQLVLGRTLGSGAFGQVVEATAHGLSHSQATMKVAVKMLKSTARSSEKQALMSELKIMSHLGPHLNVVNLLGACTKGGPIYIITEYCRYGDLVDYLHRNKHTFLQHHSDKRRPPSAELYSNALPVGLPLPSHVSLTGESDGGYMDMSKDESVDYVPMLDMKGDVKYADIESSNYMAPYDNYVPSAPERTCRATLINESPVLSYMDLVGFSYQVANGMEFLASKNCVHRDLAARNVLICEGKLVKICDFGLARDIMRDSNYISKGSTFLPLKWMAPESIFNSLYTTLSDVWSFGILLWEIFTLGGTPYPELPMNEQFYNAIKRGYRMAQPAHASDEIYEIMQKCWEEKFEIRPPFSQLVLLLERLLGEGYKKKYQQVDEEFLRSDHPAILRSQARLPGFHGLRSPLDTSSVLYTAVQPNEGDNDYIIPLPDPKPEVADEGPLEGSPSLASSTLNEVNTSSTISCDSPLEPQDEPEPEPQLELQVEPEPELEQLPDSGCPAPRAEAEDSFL
# From the text: as §1
SMILES,KINOMEscan: RIOK3 (panel of 442 kinases [1]),KINOMEscan: PDGFRB (panel of 442 kinases [2])
CCOc1cc(C(=O)N2CCC(N3CCN(C)CC3)CC2)ccc1Nc1ncc2c(n1)N(C1CCCC1)c1ccccc1C(=O)N2C [Compound 26],89,100
COc1cc(C(=O)N2CCC(N3CCN(C)CC3)CC2)ccc1Nc1ncc2c(n1)N1CCc3cccc(c31)C(=O)N2C [Compound 24],74,67
COc1cc(C(=O)N2CCC(N3CCN(C)CC3)CC2)ccc1Nc1ncc2c(n1)N(C)c1ccccc1C(=O)N2C [15 (LRRK2-IN-1)],85,100
"COc1cc(C(=O)N2CCC(N3CCN(C)CC3)CC2)ccc1Nc1ncc2c(n1)N(C1CCCC1)c1ccccc1C(=O)N2C [Compound 25, 11-cyclopentyl-2-((2-methoxy-4-(4-(4-methylpiperazin-1-yl)piperidine-1-carbonyl)phenyl)amino)-5-methyl-5H-benzo[e]pyrimido[5,4-b][1,4]diazepin-6(11H)-one]",84,83
